Where a SMILES comes first, the peptide text is derived from it. Bridges are numbered along the chain shown (N, C = ends).

In assay [1] the test system is E. coli K88. Here is the method:
The resistance of MccJ25 to pepsin, trypsin and chymotrypsin was evaluated based on previous studies ([26]), with minor modifications. E. coli K88 cells were prepared (approximately 1 × 10^7 CFU/mL), and 1 mL of the bacterial suspension and MccJ25 were transferred into 9 mL of medium. For the control, MccJ25 was not added. LB agar inoculated with E. coli K88 cells (~10^5 viable cells/mL) was poured onto a plate containing an Oxford cup to form individual wells. Then, 2 and 4 h MccJ25 (1 × MIC) previously subjected to different treatments were added to the wells. The agar overlay was incubated overnight at 37°C, and the diameter of the growth inhibition zone was measured.
The simulated gastric fluid (SGF) and simulated intestinal fluid (SIF) were mainly based on the relevant contents of the Chinese Pharmacopoeia as described previously ([26]). SGF was configurated with 10 mg/mL pepsin, 0.03 M NaCl was used to blend the pH to 1.5, while SIF was configured with 10 mg/mL trypsin, 0.05 M KH2PO4 was used to blended pH as 7. SGF and SIF were then measured separately, and the antimicrobial activity of MccJ25 in serum was determined. E. coli K88 cells were grown in MHB (Difco Laboratories, Detroit, MI, USA). In short, 1 mL of the bacterial suspension and MccJ25 were transferred into 9 mL of medium. The control group was as follows: no MccJ25 was added to it. E. coli K88 cells with a live cell count maintained at approximately 10^5 cells per milliliter were inoculated on LB agar, which was then poured into plates equipped with Oxford cups, thus forming wells. Then, MccJ25 (1 × MIC) previously treated with SGF, SIF and serum for 2, 4, and 6 h was added to these wells. One of the agar substances covering the wells needs to be incubated overnight at 37°C, and finally, the size of its growth inhibition area, i.e., the diameter, needs to be determined.

In assay [2] the test system is E. coli K88. In words: Sytox Green influx (membrane permeabilization). The settings on record: 0.5 × to 5 × MIC, dose dependent; ex 485 nm, em 520 nm. The assay is classed as cell-based. Here is the method:
E. coli K88 cells were incubated at 37°C until growth reached the mid-log phase stage, and the cells were washed and resuspended in 10 mM NaH2PO4, pH 7.2 (2 × 10^7/mL). Cells were then incubated with […] Sytox Green for 15 min in a light-free environment.

Assay [3] deals with E. coli K88. The assay is classed as cell-based. The settings on record: sublethal concentrations 0.25 × and 0.5 × MIC. Here is the method:
Mutation rates were based on rifampicin and refined ([28], [29]). Overnight cultures of E. coli K88 were diluted in 50 mL of LB broth at a ratio of 1:10,000 and grown for 3.5 h at 37°C. […] Eleven 1-mL replicates of each treatment group were grown at 37°C for 24 h. These cultures were then serially diluted and plated on LB agar plates containing 100 μg/mL rifampicin. Afterwards, plates were incubated at 37°C for 48 h. Single colonies on the plates were counted to determine CFU/mL. Mutagenesis rates were calculated using the bz-rates-mutation rate calculator (http://www.lcqb.upmc.fr/bzrates).

With `CC[C@H](C)[C@H](NC(=O)CNC(=O)[C@@H](NC(=O)[C@H](Cc1ccccc1)NC(=O)[C@H](Cc1ccc(O)cc1)NC(=O)[C@@H]1CCC(=O)NCC(=O)NCC(=O)N[C@@H](C)C(=O)NCC(=O)N[C@@H](Cc2c[nH]cn2)C(=O)N[C@@H](C(C)C)C(=O)N2CCC[C@H]2C(=O)N1)C(C)C)C(=O)NCC(=O)N[C@H](C(=O)N1CCC[C@H]1C(=O)N[C@H](C(=O)N[C@@H](CO)C(=O)N[C@@H](Cc1ccccc1)C(=O)N[C@@H](Cc1ccc(O)cc1)C(=O)NCC(=O)O)[C@@H](C)CC)[C@@H](C)O` [MccJ25, microcin J25] (GGAGHVPEYFVGIGTPISFYG-OH; lactam N-8 (inferred); C-terminus assumed), the “growth inhibition zone after heat treatment” value with E. coli K88 [1] (MccJ25 1 × MIC pre-treated at 121°C for 20 minutes, Oxford cup, LB agar, overnight 37°C, n = 6) was “greater than 22 mm”. The “growth inhibition zone after pH treatment” value in the assay with E. coli K88 [1] (MccJ25 1 × MIC pre-treated at pH 2.0 to 9.0 for 2 h, Oxford cup, LB agar, overnight 37°C, n = 6) is “greater than 22 mm”. In addition, the “antimicrobial activity after SIF, SGF or serum treatment” value in the assay on E. coli K88 [1] (MccJ25 1 × MIC pre-treated with SGF, SIF and serum for 2, 4 and 6 h, inhibition zone) is “essentially the same as that of MccJ25 subjected to a single treatment”. Further, in the assay on E. coli K88 [1] (MccJ25 1 × MIC pre-treated with pepsin, trypsin or chymotrypsin for 2 and 4 h, inhibition zone), the “antimicrobial activity after protease challenge” value is given as “retained”. Also, in the assay on E. coli K88 [2], the “Sytox Green fluorescence / membrane integrity” value is given as “membrane integrity was significantly disrupted”. Besides, the “mutation rate compared to the control” value with E. coli K88 [3] is “did not show a greater difference in mutation rate compared to the control”.

The values are drawn from PMC8894198, “Biosynthetic Microcin J25 Exerts Strong Antibacterial, Anti-Inflammatory Activities, Low Cytotoxicity Without Increasing Drug-Resistance to Bacteria Target” (Frontiers in Immunology, 2022).
